experiment: main transition temperature (TM) of phosphatidylcholines; format: physicochemical; settings: phosphatidylcholine; acyl chains on positions 1 and 2 of glycero-3-phosphocholine or 1 and 3 of glycero-2-phosphocholine
Procedure: The abovementioned preferred composition of the liposome according to the invention can be tailor-made for other temperature ranges by choice of components with the main transition temperature suitable in each case. In table 1, the main transition temperatures (TM) of phosphatidylcholines whose main transition temperatures lie in the range from 0 to 80° C. are indicated.

TM (main transition temperature) [°C]	SMILES
66	CCCCCCCCCCCCCCCCCCCC(=O)OCC(COP(=O)([O-])OCC[N+](C)(C)C)OC(=O)CCCCCCCCCCCCCCCCCCC (stereo not drawn) [1,2-diarachinoyl-]
80	CCCCCCCCCCCCCCCCCCCCCCCC(=O)OCC(COP(=O)([O-])OCC[N+](C)(C)C)OC(=O)CCCCCCCCCCCCCCCCCCCCCCC (stereo not drawn) [1,2-dilignoceroyl-]
23	CCCCCCCCCCCCCC(=O)OCC(COP(=O)([O-])OCC[N+](C)(C)C)OC(=O)CCCCCCCCCCCCC (stereo not drawn) [1,2-dimyristoyl-]
41	CCCCCCCCCCCCCCCC(=O)OC[C@H](COP(=O)([O-])OCC[N+](C)(C)C)OC(=O)CCCCCCCCCCCCCCC [1,2-dipalmitoyl-, 1,2-dipalmitoyl-sn-glycero-3-phosphocholine]
56	CCCCCCCCCCCCCCCCCC(=O)OC[C@H](COP(=O)([O-])OCC[N+](C)(C)C)OC(=O)CCCCCCCCCCCCCCCCC [1,2-distearoyl-, 1,2-distearoyl-sn-glycero-3-phosphocholine]
14	CCCCCCCC/C=C\CCCCCCCC(=O)OC(COC(=O)CCCCCCCCCCCCCCCCCCCCC)COP(=O)([O-])OCC[N+](C)(C)C (stereo not drawn) [1-behenoyl-2-oleoyl-]
11	CCCCCCCCCCCCCCCC(=O)OCC(COP(=O)([O-])OCC[N+](C)(C)C)OC(=O)CCCCCCCCCCC (stereo not drawn) [1-palmitoyl-2-lauroyl-]
27	CCCCCCCCCCCCCCCC(=O)OCC(COP(=O)([O-])OCC[N+](C)(C)C)OC(=O)CCCCCCCCCCCCC (stereo not drawn) [1-palmitoyl-2-myristoyl-]
5	CCCCCCCC/C=C\CCCCCCCC(=O)OC(COC(=O)CCCCCCCCCCCCCCC)COP(=O)([O-])OCC[N+](C)(C)C (stereo not drawn) [1-palmitoyl-2-oleoyl-]
17	CCCCCCCCCCCCCCCCCC(=O)OCC(COP(=O)([O-])OCC[N+](C)(C)C)OC(=O)CCCCCCCCCCC (stereo not drawn) [1-stearoyl-2-lauroyl-]
33	CCCCCCCCCCCCCCCCCC(=O)OCC(COP(=O)([O-])OCC[N+](C)(C)C)OC(=O)CCCCCCCCCCCCC (stereo not drawn) [1-stearoyl-2-myristoyl-]
7	CCCCCCCC/C=C\CCCCCCCC(=O)OC(COC(=O)CCCCCCCCCCCCCCCCC)COP(=O)([O-])OCC[N+](C)(C)C (stereo not drawn) [1-stearoyl-2-oleoyl-]
